Measured values from patent US11198713B2, “Agents modulating beta-catenin functions and methods thereof” (FOG PHARMACEUTICALS, INC., priority 2017, dated 2021).
Numbered stars: 1 amine (or outer) side, 2 acyl side, 3 side chain; on linkers, the order of the positions; unused ones are H or OH. Bridge positions count the residues as written; N and C are the ends. Square brackets hold non-standard residues; d marks the D form. Peptide text beside a SMILES is read from it. 3Aminoazetidine3carboxyl = O=C(C1(N[*:1])CN([*:3])C1)[*:2]; dαMeOrn(Me) = CN(CCC[C@@](C)(N[*:1])C(=O)[*:2])[*:3]; dαMeDab(Me) = CN(CC[C@@](C)(N[*:1])C(=O)[*:2])[*:3]; dαMeDap(Me) = CN(C[C@@](C)(N[*:1])C(=O)[*:2])[*:3]; αMeDab(Me) = CN(CC[C@](C)(N[*:1])C(=O)[*:2])[*:3]; X3 = O=C([C@@]1(N[*:1])CCN([*:3])C1)[*:2]; X1 = O=C([C@]1(N[*:1])CCN([*:3])C1)[*:2]; X2 = O=C(OCC=CCOC(=O)[*:2])[*:1]

What follows are compounds tested against T1, full-length beta-catenin (Axin site) (Homo sapiens, UniProt P35222) (assay: Competition fluorescence polarization assay (Axin site probe)). Conditions: competition fluorescence polarization, Table 2; read-out: in vitro FP EC50.
T1 construct: 15 nM full-length beta-catenin, 20 nM FITC labeled peptide in buffer
T1 sequence (P35222 1-781): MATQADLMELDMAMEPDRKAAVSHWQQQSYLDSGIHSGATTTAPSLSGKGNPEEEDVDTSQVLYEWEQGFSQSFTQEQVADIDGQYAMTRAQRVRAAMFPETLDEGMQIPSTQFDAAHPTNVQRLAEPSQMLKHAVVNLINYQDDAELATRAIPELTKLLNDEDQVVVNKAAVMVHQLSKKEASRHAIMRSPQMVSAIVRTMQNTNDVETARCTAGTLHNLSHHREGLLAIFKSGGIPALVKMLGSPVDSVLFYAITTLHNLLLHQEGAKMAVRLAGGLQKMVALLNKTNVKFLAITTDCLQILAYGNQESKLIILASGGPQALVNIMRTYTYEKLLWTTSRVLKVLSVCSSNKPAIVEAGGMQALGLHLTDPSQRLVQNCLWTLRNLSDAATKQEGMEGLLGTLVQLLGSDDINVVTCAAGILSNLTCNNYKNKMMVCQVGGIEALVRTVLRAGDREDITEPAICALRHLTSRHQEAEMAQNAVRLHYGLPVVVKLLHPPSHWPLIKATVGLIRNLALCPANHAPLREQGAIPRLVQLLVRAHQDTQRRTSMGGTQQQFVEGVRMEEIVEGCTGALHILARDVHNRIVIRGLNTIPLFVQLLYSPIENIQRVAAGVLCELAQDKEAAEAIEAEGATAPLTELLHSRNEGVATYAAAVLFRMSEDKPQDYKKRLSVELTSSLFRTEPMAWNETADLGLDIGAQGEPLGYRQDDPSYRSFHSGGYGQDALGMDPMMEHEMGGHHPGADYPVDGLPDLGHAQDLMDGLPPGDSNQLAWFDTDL
Assay type: binding
Procedure, shortened: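 Competition FP: 15 nM full-length β-catenin pre-incubated 5 min with 20 nM FITC-labelled stapled Axin-site peptide, then titrated peptide added (3-fold series from 5 μM) for 15 min in the dark. Buffer 50 mM Tris pH 8.0, 250 mM NaCl, 2% glycerol, 0.5 mM EDTA; duplicate reads.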

Row | Structure (SMILES) | EC50 [µM]
1 | CC[C@H](C)[C@@H]1NC(=O)[C@H](Cc2cccs2)NC(=O)[C@H](C)NC(=O)[C@H](CC(=O)O)NC(=O)[C@H](CC(C)C)NC(=O)[C@H]([C@@H](C)CC)NC(=O)[C@](C)(NC(=O)[C@H](C)NC(C)=O)CCCCCCC=CCOC(=O)N2CC[C@@](C(=O)N[C@@H](CCCNC(=N)N)C(=O)N[C@H](C(=O)N[C@@H](Cc3c[nH]c4ccccc34)C(N)=O)C(C)C)(C2)NC1=O [FP0536c, Ac-A-R8-I-L-D-A-thi-I-MB-R-V-W-NH2] | > 5
2 | CC[C@H](C)[C@@H]1NC(=O)[C@H](Cc2cccnc2)NC(=O)[C@H](C)NC(=O)[C@H](CC(=O)O)NC(=O)[C@H](CC(C)C)NC(=O)[C@H]([C@@H](C)CC)NC(=O)[C@](C)(NC(=O)[C@H](C)NC(C)=O)CCCCCCC=CCOC(=O)N2CC[C@@](C(=O)N[C@@H](CCCNC(=N)N)C(=O)N[C@H](C(=O)N[C@@H](Cc3c[nH]c4ccccc34)C(N)=O)C(C)C)(C2)NC1=O [FP0537c, Ac-A-R8-I-L-D-A-3pyr-I-MB-R-V-W-NH2] | > 5
3 | CC[C@H](C)[C@@H]1NC(=O)[C@H](Cc2ccncc2)NC(=O)[C@H](C)NC(=O)[C@H](CC(=O)O)NC(=O)[C@H](CC(C)C)NC(=O)[C@H]([C@@H](C)CC)NC(=O)[C@](C)(NC(=O)[C@H](C)NC(C)=O)CCCCCCC=CCOC(=O)N2CC[C@@](C(=O)N[C@@H](CCCNC(=N)N)C(=O)N[C@H](C(=O)N[C@@H](Cc3c[nH]c4ccccc34)C(N)=O)C(C)C)(C2)NC1=O [FP0538c, Ac-A-R8-I-L-D-A-4pyr-I-MB-R-V-W-NH2] | 0.5 to 5
4 | CC[C@H](C)[C@@H]1NC(=O)[C@H](Cc2ccccc2)NC(=O)[C@H](C)NC(=O)[C@H](CC(=O)O)NC(=O)[C@H](CC(C)C)NC(=O)[C@H]([C@@H](C)CC)NC(=O)[C@](C)(NC(=O)[C@H](C)NC(C)=O)CCCCCCC=CCOC(=O)N2CC[C@@](C(=O)N[C@@H](CCCNC(=N)N)C(=O)N[C@H](C(=O)N[C@@H](Cc3c[nH]c4ccccc34)C(N)=O)C(C)C)(C2)NC1=O [FP0540c, Ac-A-R8-I-L-D-A-F-I-MB-R-V-W-NH2] | > 5
5 | CC[C@H](C)[C@@H]1NC(=O)[C@H](Cc2ccco2)NC(=O)[C@H](C)NC(=O)[C@H](CC(=O)O)NC(=O)[C@H](CC(C)C)NC(=O)[C@H]([C@@H](C)CC)NC(=O)[C@](C)(NC(=O)[C@H](C)NC(C)=O)CCCCCCC=CCOC(=O)N2CC[C@@](C(=O)N[C@@H](CCCNC(=N)N)C(=O)N[C@H](C(=O)N[C@@H](Cc3c[nH]c4ccccc34)C(N)=O)C(C)C)(C2)NC1=O [FP0541c, Ac-A-R8-I-L-D-A-fur-I-MB-R-V-W-NH2] | > 5
6 | CC[C@H](C)[C@@H]1NC(=O)[C@H](Cc2c[nH]cn2)NC(=O)[C@H](C)NC(=O)[C@H](CC(=O)O)NC(=O)[C@H](CC(C)C)NC(=O)[C@H]([C@@H](C)CC)NC(=O)[C@](C)(NC(=O)[C@H](C)NC(C)=O)CCCCCCC=CCOC(=O)N2CC[C@@](C(=O)N[C@@H](CO)C(=O)N[C@H](C(=O)N[C@@H](Cc3c[nH]c4ccccc34)C(N)=O)C(C)C)(C2)NC1=O [FP0542c, Ac-A-R8-I-L-D-A-H-I-MB-S-V-W-NH2] | 0.5 to 5
7 | CC[C@H](C)[C@@H]1NC(=O)[C@H](Cc2c[nH]cn2)NC(=O)[C@H](C)NC(=O)[C@H](CC(=O)O)NC(=O)[C@H](CC(C)C)NC(=O)[C@H]([C@@H](C)CC)NC(=O)[C@](C)(NC(=O)[C@H](C)NC(C)=O)CCCN(C)C(=O)OCC=CCOC(=O)N(C)CC[C@@](C)(C(=O)N[C@@H](CCCNC(=N)N)C(=O)N[C@H](C(=O)N[C@@H](Cc2c[nH]c3ccccc23)C(N)=O)C(C)C)NC1=O [FP0587c, Ac-A-MI-I-L-D-A-H-I-MF-R-V-W-NH2] (Ac-A[dαMeOrn(Me)]ILDAHI[αMeDab(Me)]RVW-NH2; linker 2-9 via X2) | < 0.1
8 | CC[C@H](C)[C@@H]1NC(=O)[C@H](Cc2c[nH]cn2)NC(=O)[C@H](C)NC(=O)[C@H](CC(=O)O)NC(=O)[C@H](CC(C)C)NC(=O)[C@H]([C@@H](C)CC)NC(=O)[C@](C)(NC(=O)[C@H](C)NC(C)=O)CCN(C)C(=O)OCC=CCOC(=O)N(C)C[C@](C)(C(=O)N[C@@H](CCCNC(=N)N)C(=O)N[C@H](C(=O)N[C@@H](Cc2c[nH]c3ccccc23)C(N)=O)C(C)C)NC1=O [FP0596c, Ac-A-MG-I-L-D-A-H-I-ME-R-V-W-NH2] (Ac-A[dαMeDab(Me)]ILDAHI[dαMeDap(Me)]RVW-NH2; linker 2-9 via X2) | 0.5 to 5
9 | CC[C@H](C)[C@@H]1NC(=O)[C@H](Cc2c[nH]cn2)NC(=O)[C@H](C)NC(=O)[C@H](CC(=O)O)NC(=O)[C@H](CC(C)C)NC(=O)[C@H]([C@@H](C)CC)NC(=O)[C@](C)(NC(=O)[C@H](C)NC(C)=O)CN(C)C(=O)OCC=CCOC(=O)N(C)CC[C@@](C)(C(=O)N[C@@H](CCCNC(=N)N)C(=O)N[C@H](C(=O)N[C@@H](Cc2c[nH]c3ccccc23)C(N)=O)C(C)C)NC1=O [FP0601c, Ac-A-ME-I-L-D-A-H-I-MF-R-V-W-NH2] (Ac-A[dαMeDap(Me)]ILDAHI[αMeDab(Me)]RVW-NH2; linker 2-9 via X2) | < 0.1
10 | CC[C@H](C)[C@@H]1NC(=O)[C@H](Cc2c[nH]cn2)NC(=O)[C@H](C)NC(=O)[C@H](CC(=O)O)NC(=O)[C@H](CC(C)C)NC(=O)[C@H]([C@@H](C)CC)NC(=O)[C@](C)(NC(=O)[C@H](C)NC(C)=O)CN(C)C(=O)OCC=CCOC(=O)N2CC[C@@](C(=O)N[C@@H](CCCNC(=N)N)C(=O)N[C@H](C(=O)N[C@@H](Cc3c[nH]c4ccccc34)C(N)=O)C(C)C)(C2)NC1=O [FP0604c, Ac-A-ME-I-L-D-A-H-I-MB-R-V-W-NH2] (Ac-A[dαMeDap(Me)]ILDAHI[X1]RVW-NH2; linker 2-9 via X2) | < 0.1
11 | CC[C@H](C)[C@@H]1NC(=O)[C@H](Cc2c[nH]cn2)NC(=O)[C@H](C)NC(=O)[C@H](CC(=O)O)NC(=O)[C@H](CC(C)C)NC(=O)[C@H]([C@@H](C)CC)NC(=O)[C@](C)(NC(=O)[C@H](C)NC(C)=O)CN(C)C(=O)OCC=CCOC(=O)N2CC[C@](C(=O)N[C@@H](CCCNC(=N)N)C(=O)N[C@H](C(=O)N[C@@H](Cc3c[nH]c4ccccc34)C(N)=O)C(C)C)(C2)NC1=O [FP0605c, Ac-A-ME-I-L-D-A-H-I-MC-R-V-W-NH2] (Ac-A[dαMeDap(Me)]ILDAHI[X3]RVW-NH2; linker 2-9 via X2) | < 0.1
12 | CC[C@H](C)[C@@H]1NC(=O)[C@H](Cc2c[nH]cn2)NC(=O)[C@H](C)NC(=O)[C@H](CC(=O)O)NC(=O)[C@H](CC(C)C)NC(=O)[C@H]([C@@H](C)CC)NC(=O)C2(NC(=O)[C@H](C)NC(C)=O)CN(C2)C(=O)OCC=CCOC(=O)N(C)CC[C@@](C)(C(=O)N[C@@H](CCCNC(=N)N)C(=O)N[C@H](C(=O)N[C@@H](Cc2c[nH]c3ccccc23)C(N)=O)C(C)C)NC1=O [FP0611c, Ac-A-MA-I-L-D-A-H-I-MF-R-V-W-NH2] (Ac-A[3Aminoazetidine3carboxyl]ILDAHI[αMeDab(Me)]RVW-NH2; linker 2-9 via X2) | < 0.1
13 | CC[C@H](C)[C@@H]1NC(=O)[C@H](Cc2c[nH]cn2)NC(=O)[C@H](C)NC(=O)[C@H](CC(=O)O)NC(=O)[C@H](CC(C)C)NC(=O)[C@H]([C@@H](C)CC)NC(=O)C2(NC(=O)[C@H](C)NC(C)=O)CN(C2)C(=O)OCC=CCOC(=O)N(C)CCC[C@](C)(C(=O)N[C@@H](CCCNC(=N)N)C(=O)N[C@H](C(=O)N[C@@H](Cc2c[nH]c3ccccc23)C(N)=O)C(C)C)NC1=O [FP0625c, Ac-A-MA-I-L-D-A-H-I-MI-R-V-W-NH2] (Ac-A[3Aminoazetidine3carboxyl]ILDAHI[dαMeOrn(Me)]RVW-NH2; linker 2-9 via X2) | 0.1 to 0.5
14 | CC[C@H](C)[C@@H]1NC(=O)[C@H](Cc2c[nH]cn2)NC(=O)[C@H](C)NC(=O)[C@H](CCS(C)(=O)=O)NC(=O)[C@H](CC(C)C)NC(=O)[C@H]([C@@H](C)CC)NC(=O)[C@](C)(NC(=O)[C@H](C)NC(C)=O)CCCCCCC=CCOC(=O)N2CC[C@@](C(=O)N[C@@H](CCCNC(=N)N)C(=O)N[C@H](C(=O)N[C@@H](Cc3c[nH]c4ccccc34)C(N)=O)C(C)C)(C2)NC1=O [FP0629c, Ac-A-R8-I-L-M2O-A-H-I-MB-R-V-W-NH2] | 0.5 to 5
15 | CC[C@H](C)[C@@H]1NC(=O)[C@H](Cc2c[nH]cn2)NC(=O)[C@H](C)NC(=O)[C@H](CC(=O)O)NC(=O)[C@H](CC(C)C)NC(=O)[C@H]([C@@H](C)CC)NC(=O)[C@](C)(NC(=O)[C@H](C)NC(C)=O)CCCCCCC=CCOC(=O)N2CC[C@@](C(=O)N[C@@H](CCCNC(=N)N)C(=O)N[C@H](C(=O)N[C@H](Cc3c[nH]c4ccccc34)C(N)=O)C(C)C)(C2)NC1=O [FP0630c, Ac-A-R8-I-L-D-A-H-I-MB-R-V-dW-NH2] | 0.1 to 0.5
16 | CC[C@H](C)[C@@H]1NC(=O)[C@H](Cc2c[nH]cn2)NC(=O)[C@H](C)NC(=O)[C@H](CC(=O)O)NC(=O)[C@H](CC(C)C)NC(=O)[C@H]([C@@H](C)CC)NC(=O)[C@](C)(NC(=O)[C@H](C)NC(C)=O)CCCCCCC=CCOC(=O)N2CC[C@@](C(=O)N[C@@H](CCCNC(=N)N)C(=O)N[C@H](C(=O)N[C@@](C)(Cc3c[nH]c4ccccc34)C(N)=O)C(C)C)(C2)NC1=O [FP0631c, Ac-A-R8-I-L-D-A-H-I-MB-R-V-aMeW-NH2] | 0.5 to 5
